# Reference: US20050090522A1 (priority 2001, published 2005)
# Test system: HIV-1
# Experiment: HIV-1 single-round infectious luciferase reporter virus (pseudotype) assay in HeLa CD4 CCR5 cells
# Assay type: cell-based
# Conditions: Human immunodeficiency virus 1, HeLa-CD4/CCR5, read-out: EC50 Group from TABLE 1, HeLa CD4 CCR5 cells, single-round infectious luciferase reporter virus
# Procedure, shortened: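 HeLa CD4 CCR5 cells (5×10^4/well, DMEM + 10% FBS) were treated with compound (final <10 μM) and infected with single-round luciferase reporter virus made in 293 cells, at MOI ~0.01. Luciferase was read 72 h post infection. EC50 came from 10-concentration percent-inhibition curves fitted to a four-parameter logistic model.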
row,Structure (SMILES),EC50 [nM]
1,"COc1ncc(-c2ncc(OC)c3c(C(=O)C(=O)N4CCN(C(=O)c5ccccc5)CC4)c[nH]c23)c(OC)n1 [Example 13, 1-benzoyl-4-[(4-methoxy-7-(2,4-dimethoxy-pyrimidin-5-yl)-6-azaindol-3-yl)-oxoacetyl]piperazine]",< 1000
2,O=C(C(=O)N1CCN(C(=O)c2ccccc2)CC1)c1c[nH]c2c(-c3cnc[nH]3)ncc(F)c12 [Example 148],< 1000
3,"CC1CN(C(=O)c2ccccc2)CCN1C(=O)C(=O)c1c[nH]c2c(-c3ccc4c(c3)OCO4)nccc12 (stereo not drawn) [Example 5, 1-benzoyl-3-methyl-4-[(7-(3,4-methylenedioxyphenyl)-6-azaindol-3-yl)-oxoacetyl]piperazine]",< 1000
4,"CCCSc1ncn(-c2ncc(OC)c3c(C(=O)C(=O)N4CCN(C(=O)c5ccccc5)CC4)c[nH]c23)n1 [Example 289, 1-benzoyl-4-[(4-methoxy-7-(3-propylsulfanyl-[1,2,4]triazol-1-yl)-6-azaindol-3-yl)-oxoacetyl]piperazine]",< 1000
5,O=C(C(=O)N1CCN(C(=O)c2ccccc2)CC1)c1c[nH]c2c(-c3cccnn3)ncc(F)c12 [Example 154],< 1000
6,"O=C(C(=O)N1CCN(C(=O)c2ccccc2)CC1)c1c[nH]c2c(-c3cc4ccccc4o3)nccc12 [Example 8, 1-benzoyl-4-[(7-(benzofuran-2-yl)-6-azaindol-3-yl)-oxoacetyl]piperazine]",< 1000
7,"COc1cnc(-c2cccc(N)n2)c2[nH]cc(C(=O)C(=O)N3CCN(C(=O)c4ccccc4)CC3)c12 [Example 75, 1-benzoyl-4-[(4-methoxy-7-(2-aminopyridin-6-yl)-6-azaindol-3-yl)-oxoacetyl]piperazine]",< 1000
8,"COc1cnc(-c2cnc(N3CCCC3=O)s2)c2[nH]cc(C(=O)C(=O)N3CCN(C(=O)c4ccccc4)CC3)c12 [Example 116, 1-benzoyl-4-[(4-methoxy-7-((2-pyrrolidinon-1-yl)-thiazol-5-yl)-6-azaindol-3-yl)-oxoacetyl]piperazine]",< 1000
9,"COc1cnc(-c2cnc(C3CC3)cn2)c2[nH]cc(C(=O)C(=O)N3CCN(C(=O)c4ccccn4)CC3)c12 [Example 181, 1-picolinoyl-4-[(4-methoxy-7-(2-cyclopropanyl-pyrazin-5-yl)-6-azaindol-3-yl)-oxoacetyl]piperazine]",< 1000
10,"COc1cnc(-n2ccc(-c3cccc(C(F)(F)F)c3)n2)c2[nH]cc(C(=O)C(=O)N3CCN(C(=O)c4ccccc4)CC3)c12 [Example 287, 1-benzoyl-4-[(4-methoxy-7-(3-(3-trifluoromethyl-phenyl)-pyrazol-1-yl)-6-azaindol-3-yl)-oxoacetyl]piperazine]",< 1000
11,"C[C@@H]1CN(C(=O)c2ccccc2)CCN1C(=O)C(=O)c1c[nH]c2c(-c3cccc(N)n3)nccc12 [Example 112, (R)-1-benzoyl-3-methyl-4-[(7-(2-amino-pyridin-6-yl)-6-azaindol-3-yl)-oxoacetyl]piperazine]",< 1000
12,O=C(C(=O)N1CCN(C(=O)c2ccccc2)CC1)c1c[nH]c2c(-c3c[nH]c(=O)cn3)ncc(Cl)c12 [Example 149],< 1000
13,"COc1cnc(-c2cnc(-n3cccc3)nc2)c2[nH]cc(C(=O)C(=O)N3CCN(C(=O)c4ccccc4)CC3)c12 [Example 118, 1-benzoyl-4-[(4-methoxy-7-(2-(pyrrol-1-yl)-pyrimidin-5-yl)-6-azaindol-3-yl)-oxoacetyl]piperazine]",< 1000
14,"COc1cnc(-n2ccc(CC(C)O)n2)c2[nH]cc(C(=O)C(=O)N3CCN(C(=O)c4ccccc4)CC3)c12 (stereo not drawn) [Example 277, 1-benzoyl-4-[(4-methoxy-7-(3-(2-hydroxylpropyl)-pyrazol-1-yl)-6-azaindol-3-yl)-oxoacetyl]piperazine]",< 1000
15,"COc1cnc(-c2ccccn2)c2[nH]cc(C(=O)C(=O)N3CCN(C(=O)c4ccccc4)CC3)c12 [Example 36, 1-benzoyl-4-[(4-methoxy-7-(pyridin-2-yl)-6-azaindol-3-yl)-oxoacetyl]piperazine]",< 1000
16,"COc1cnc(-c2cnc(SC)s2)c2[nH]cc(C(=O)C(=O)N3CCN(C(=O)c4ccccc4)CC3)c12 [Example 93, 1-benzoyl-4-[(4-methoxy-7-(2-methylthio-thiazol-5-yl)-6-azaindol-3-yl)-oxoacetyl]piperazine]",< 1000
17,"O=C(C(=O)N1CCN(C(=O)c2ccccc2)CC1)c1c[nH]c2c(-c3cccc4cccnc34)nccc12 [Example 11, 1-benzoyl-4-[(7-(quinolin-8-yl)-6-azaindol-3-yl)-oxoacetyl]piperazine]",< 1000
18,O=C(NCCN1CCOCC1)c1cc(-c2ncc(F)c3c(C(=O)C(=O)N4CCN(C(=O)c5ccccc5)CC4)c[nH]c23)n[nH]1 [Example 213],< 1000
19,COc1cnc(-c2cnccn2)c2[nH]cc(C(=O)C(=O)N3CCN(C(=O)OC(C)(C)C)CC3)c12 [Precursor 5t],< 1000
20,COc1cnc(-c2cnc(N3CCCC3)cn2)c2[nH]cc(C(=O)C(=O)N3CCN(C(=O)c4ccccn4)CC3)c12 [Example 185],< 1000
21,"COc1cnc(-c2ccsc2)c2[nH]cc(C(=O)C(=O)N3CCN(C(=O)c4ccccc4)CC3)c12 [Example 83, 1benzoyl-4-[(4-methoxy-7-(thiophen-3-yl)-6-azaindol-3-yl)-oxoacetyl]piperazine]",< 1000
22,"C[C@@H]1CN(C(=O)c2ccccc2)CCN1C(=O)C(=O)c1c[nH]c2c(-c3cncc(N)n3)nccc12 [Example 111, (R)-1-benzoyl-3-methyl-4-[(7-(2-amino-pyrazin-6-yl)-6-azaindol-3-yl)-oxoacetyl]piperazine]",< 1000

# Same assay, conditions: Human immunodeficiency virus 1, HeLa-CD4/CCR5, read-out: EC50 Group from Table 1, Table 2-1; HeLa CD4 CCR5 cells, single-round luciferase reporter virus
row,Structure (SMILES),EC50 [nM]
1,"COc1cnc(-n2nccn2)c2[nH]cc(C(=O)C(=O)N3CCN(C(=O)c4ccccc4)[C@H](C)C3)c12 [Example 256, (R)-1-benzoyl-2-methyl-4-[(4-methoxy-7-(1,2,3-triazol-2-yl)-6-azaindol-3-yl)-oxoacetyl]piperazine]",< 1000
2,"COc1cnc(-n2ccc(N)n2)c2[nH]cc(C(=O)C(=O)N3CCN(C(=O)c4ccccc4)[C@H](C)C3)c12 [Example 253, (R)-1-benzoyl-2-methyl-4-[(4-methoxy-7-(3-amino-pyrazol-1-yl)-6-azaindol-3-yl)-oxoacetyl]piperazine]",< 1000
3,"COc1cnc(-n2cnc(NCc3cccnc3)n2)c2[nH]cc(C(=O)C(=O)N3CCN(C(=O)c4ccccc4)[C@H](C)C3)c12 [Example 261, (R)-1-benzoyl-2-methyl-4-[(4-methoxy-7-(3-(3-pyridinemethylamino)-1,2,4-triazol-1-yl)-6-azaindol-3-yl)-oxoacetyl]piperazine]",< 1000
4,COc1cnc(-c2nc(-c3ccc(C)cc3)n[nH]2)c2[nH]cc(C(=O)C(=O)N3CCN(C(=O)c4ccccc4)[C@H](C)C3)c12 [Example 337],< 1000

# Same assay, conditions: Human immunodeficiency virus 1, HeLa-CD4/CCR5, read-out: EC50 Group from Table 1, Table 4; HeLa CD4 CCR5 cells, single-round luciferase reporter virus
row,Structure (SMILES),EC50 [nM]
1,C[C@@H]1CN(C(=O)c2ccccc2)CCN1C(=O)C(=O)c1c[nH]c2c(-c3ccsc3)ccnc12 [Example 129],< 1000
2,O=Cc1ccc(-c2ccnc3c(C(=O)C(=O)N4CCN(C(=O)c5ccccc5)CC4)c[nH]c23)s1 [Example 133],< 1000
3,C[C@@H]1CN(C(=O)c2ccccc2)CCN1C(=O)C(=O)c1c[nH]c2c(-c3cccs3)ccnc12 [Example 128],< 1000
4,"C[C@@H]1CN(C(=O)c2ccccc2)CCN1C(=O)C(=O)c1c[nH]c2c(C(=O)Nc3nccs3)ccnc12 [Example 137, (R)-1-benzoyl-3-methyl-4-[(7-(thiazol-2-yl)aminocarbonyl-4-azaindol-3-yl)-oxoacetyl]piperazine]",< 1000

# Same assay, conditions: Human immunodeficiency virus 1, HeLa-CD4/CCR5, read-out: EC50 category, HIV-1 single-round reporter virus assay; category 1/2/3 per Table A1 key
row,Structure (SMILES),EC50 [nM]
1,"COc1ncc(-c2ncc(OC)c3c(C(=O)C(=O)N4CCN(C(=O)c5ccccc5)CC4)c[nH]c23)c(OC)n1 [Example 13, 1-benzoyl-4-[(4-methoxy-7-(2,4-dimethoxy-pyrimidin-5-yl)-6-azaindol-3-yl)-oxoacetyl]piperazine]",0.2 to 1000
2,O=C(C(=O)N1CCN(C(=O)c2ccccc2)CC1)c1c[nH]c2c(-c3cnc[nH]3)ncc(F)c12 [Example 148],0.2 to 1000

# Same assay, conditions: Human immunodeficiency virus 1, HeLa-CD4/CCR5, read-out: EC50 category, initial pseudotype assay; key in Table A1
row,Structure (SMILES),EC50 [nM]
1,"COc1cnc(-n2nccn2)c2[nH]cc(C(=O)C(=O)N3CCN(C(=O)c4ccccc4)[C@H](C)C3)c12 [Example 256, (R)-1-benzoyl-2-methyl-4-[(4-methoxy-7-(1,2,3-triazol-2-yl)-6-azaindol-3-yl)-oxoacetyl]piperazine]",0.2 to 1000

# Test system: HeLa cells
# Experiment: Cytotoxicity assay in HeLa cells (MTT dye reduction, CC50)
# Conditions: HeLa cells, six days with drug, MTT
# Experimental: • Virus production—Human embryonic Kidney cell line, 293, propagated in Dulbecco's Modified Eagle Medium (Life Technologies, Gaithersburg, Md.) containing 10% fetal Bovine serum (FBS, Sigma, St. Louis, Mo.). • Virus infection—Human epithelial cell line, HeLa, expressing the HIV-1 receptors CD4 and CCR^5 was propagated in Dulbecco's Modified Eagle Medium (Life Technologies, Gaithersburg, Md.) containing 10% fetal Bovine serum (FBS, Sigma, St. Louis, Mo.) and supplemented with 0.2 mg/mL Geneticin (Life Technologies, Gaithersburg, Md.) and 0.4 mg/mL Zeocin (Invitrogen, Carlsbad, Calif.). […] Transfections were performed using lipofectAMINE PLUS reagent as described by the manufacturer (Life Technologies, Gaithersburg, Md.). Experiment • 1. Compound was added to HeLa CD4 CCR5 cells plated in 96 well plates at a cell density of 5×10^4 cells per well in 100 μl Dulbecco's Modified Eagle Medium containing 10% fetal Bovine serum at a concentration of […]. • 2. 100 μl of single-round infectious reporter virus in Dulbecco's Modified Eagle Medium was then added to the plated cells and compound at an approximate multiplicity of infection (MOI) of 0.01, resulting in a final volume of 200 μl per well and a final compound concentration of <10 μM. • 3. Samples were harvested 72 h after infection. • 4. Viral infection was monitored by measuring luciferase expression from viral DNA in the infected cells using a luciferase reporter gene assay kit (Roche Molecular Biochemicals, Indianapolis, Ind.). Infected cell supernatants were removed and 50 μl of Dulbecco's Modified Eagle Medium (without phenol red) and 50 μl of luciferase assay reagent reconstituted as described by the manufacturer (Roche Molecular Biochemicals, Indianapolis, Ind.) was added per well. Luciferase activity was then quantified by measuring luminescence using a Wallac microbeta scintillation counter. • 5. […] An EC50 provides a method for comparing the antiviral potency of the compounds of this invention. The effective concentration for fifty percent inhibition (EC50) was calculated with the Microsoft Excel Xlfit curve fitting software. For each compound, curves were generated from percent inhibition calculated at 10 different concentrations by using a four paramenter logistic model (model 205). Table 1 is the key for the data in Tables 2-4. Cytoxicity assays were conducted with the same HeLa using methodology well known in the art.
# For accuracy, the determined measure of viral inhibition is an EC50; but the minimum plasma concentrations which should be maintained in a patient is generally believed to be at least four or five fold higher. […] Lower is better. • 4) Estimating potential exposure in man by measuring parameters such as AUC and rate of clearance by oral and iv dosing in rats. High exposure and low clearance was desired.
row,Structure (SMILES),CC50 > 100 uM
1,"COc1cnc(-n2nccn2)c2[nH]cc(C(=O)C(=O)N3CCN(C(=O)c4ccccc4)[C@H](C)C3)c12 [Example 256, (R)-1-benzoyl-2-methyl-4-[(4-methoxy-7-(1,2,3-triazol-2-yl)-6-azaindol-3-yl)-oxoacetyl]piperazine]",Yes

# Same assay, conditions: cytotoxicity; Yes = CC50 above 100 uM, No = not
row,Structure (SMILES),CC50 > 100 uM
1,"COc1ncc(-c2ncc(OC)c3c(C(=O)C(=O)N4CCN(C(=O)c5ccccc5)CC4)c[nH]c23)c(OC)n1 [Example 13, 1-benzoyl-4-[(4-methoxy-7-(2,4-dimethoxy-pyrimidin-5-yl)-6-azaindol-3-yl)-oxoacetyl]piperazine]",Yes
2,O=C(C(=O)N1CCN(C(=O)c2ccccc2)CC1)c1c[nH]c2c(-c3cnc[nH]3)ncc(F)c12 [Example 148],Yes
